Active and inactive are the calls of the source. No cut-off for these calls is given here.
Tested on: Human immunodeficiency virus
Assay: Inhibition of HIV reverse transcriptase
Details: not given

Row | SMILES | Activity
1 | O=C(NCc1ccc(F)cc1)c1nc(-c2cccs2)nc(O)c1O | inactive

Tested on: Hepacivirus hominis
Assay: Inhibition of HCV NS5b polymerase
Details: not given

Row | SMILES | Activity
2 | O=C(O)c1nc(-c2cccs2)nc(O)c1O | inactive

Tested on: not listed separately
Assay: Oral bioavailability in rat
Assay type: ADME, organism-based
Details: in vivo

Row | SMILES | bioavailability
3 | O=C(NCc1ccc(F)cc1)c1nc(-c2cccs2)nc(O)c1O | 39%

Organism: Homo sapiens
Assay: Inhibitory activity against human DNA polymerase beta
Details: not given

Row | SMILES | Activity
4 | O=C(NCc1ccc(F)cc1)c1nc(-c2cccs2)nc(O)c1O | inactive

Molecular target: Human immunodeficiency virus type 1 integrase (Human immunodeficiency virus 1, UniProt Q7ZJM1)
Assay: Inhibition of HIV1 integrase strand transfer activity
Details: not given

Sequence of Human immunodeficiency virus type 1 integrase (Q7ZJM1 whole entry): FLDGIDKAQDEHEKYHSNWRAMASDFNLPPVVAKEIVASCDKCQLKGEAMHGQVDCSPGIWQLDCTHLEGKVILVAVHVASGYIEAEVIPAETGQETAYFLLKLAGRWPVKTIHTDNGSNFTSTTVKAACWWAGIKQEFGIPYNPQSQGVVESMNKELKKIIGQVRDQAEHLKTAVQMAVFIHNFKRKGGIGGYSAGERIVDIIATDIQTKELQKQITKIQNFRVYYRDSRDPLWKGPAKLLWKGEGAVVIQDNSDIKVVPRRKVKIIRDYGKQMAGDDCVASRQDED

Row | SMILES | IC50
5 | Cc1cccc(CNC(=O)c2nc(-c3cccs3)nc(O)c2O)c1 | 40 nM
6 | Cc1ccc(CNC(=O)c2nc(-c3cccs3)nc(O)c2O)cc1 | 70 nM
7 | O=C(NCc1ccc(Cl)c(Cl)c1)c1nc(-c2cccs2)nc(O)c1O | 10 nM
8 | O=C(NCC1CCCCC1)c1nc(-c2cccs2)nc(O)c1O | 50000 nM
9 | COc1ccc(CNC(=O)c2nc(-c3cccs3)nc(O)c2O)cc1 | 550 nM
10 | C[C@H](NC(=O)c1nc(-c2cccs2)nc(O)c1O)c1ccc2ccccc2c1 | 40 nM
11 | O=C(NCc1ccccc1F)c1nc(-c2cccs2)nc(O)c1O | 160 nM
12 | O=C(Nc1nccs1)c1nc(-c2cccs2)nc(O)c1O | 200 nM
13 | O=C(NCc1cccc(F)c1)c1nc(-c2cccs2)nc(O)c1O | 70 nM
14 | O=C(Nc1cc2ccccc2s1)c1nc(-c2cccs2)nc(O)c1O | 10 nM
15 | O=C(NCc1ccncc1)c1nc(-c2cccs2)nc(O)c1O | 16600 nM
16 | O=C(Nc1cccs1)c1nc(-c2cccs2)nc(O)c1O | 100 nM
17 | O=C(NCc1cccc(-c2ccccc2)c1)c1nc(-c2cccs2)nc(O)c1O | 50 nM
18 | O=C(Nc1cncs1)c1nc(-c2cccs2)nc(O)c1O | 2500 nM
19 | O=C(N[C@@H]1CCc2ccccc21)c1nc(-c2cccs2)nc(O)c1O | 610 nM
20 | O=C(NCCc1ccccc1)c1nc(-c2cccs2)nc(O)c1O | 20 nM
21 | O=C(NCc1ccc(Cl)cc1)c1nc(-c2cccs2)nc(O)c1O | 20 nM
22 | CN(C(=O)c1nc(-c2cccs2)nc(O)c1O)c1cccc2ccccc12 | 210 nM
23 | O=C(Nc1ccccc1)c1nc(-c2cccs2)nc(O)c1O | 1000 nM
24 | COc1ccccc1CNC(=O)c1nc(-c2cccs2)nc(O)c1O | 90 nM
25 | O=C(Nc1cccc2ccccc12)c1nc(-c2cccs2)nc(O)c1O | 30 nM
26 | Cc1ccccc1CNC(=O)c1nc(-c2cccs2)nc(O)c1O | 110 nM
27 | O=C(NCc1ccccc1-c1ccccc1)c1nc(-c2cccs2)nc(O)c1O | 130 nM
28 | O=C(N[C@H]1CCc2ccccc21)c1nc(-c2cccs2)nc(O)c1O | 20 nM
29 | COc1cccc(CNC(=O)c2nc(-c3cccs3)nc(O)c2O)c1 | 50 nM
30 | O=C(NCc1c[nH]c2ccccc12)c1nc(-c2cccs2)nc(O)c1O | 20 nM
31 | C[C@@H](NC(=O)c1nc(-c2cccs2)nc(O)c1O)c1ccc2ccccc2c1 | 610 nM
32 | O=C(Nc1csc2ccccc12)c1nc(-c2cccs2)nc(O)c1O | 50 nM
33 | O=C(NCc1ccc(-c2ccccc2)cc1)c1nc(-c2cccs2)nc(O)c1O | 50000 nM

Organism: Homo sapiens
Assay: Inhibitory activity against human DNA polymerase gamma
Details: not given

Row | SMILES | Activity
34 | O=C(NCc1ccc(F)cc1)c1nc(-c2cccs2)nc(O)c1O | inactive

Organism: Homo sapiens
Assay: Inhibitory activity against human DNA polymerase alpha
Details: not given

Row | SMILES | Activity
35 | O=C(NCc1ccc(F)cc1)c1nc(-c2cccs2)nc(O)c1O | inactive

Tested on: not listed separately
Assay: Plasma clearance in rat
Assay type: ADME, organism-based
Details: not given

Row | SMILES | clearance
36 | O=C(NCc1ccc(F)cc1)c1nc(-c2cccs2)nc(O)c1O | 11 mL/min/kg

From ChEMBL document CHEMBL1146293, “From dihydroxypyrimidine carboxylic acids to carboxamide HIV-1 integrase inhibitors: SAR around the amide moiety” (Bioorg Med Chem Lett, 2007)
